The results in this text go back to ChEMBL document CHEMBL1141465, “The design, synthesis and structure-activity relationships of 1-aryl-4-aminoalkylisoquinolines: a novel series of CRF-1 receptor antagonists” (Bioorg Med Chem Lett, 2008).

In series [1] the target is T1, Corticotropin-releasing factor receptor 1 (Homo sapiens, UniProt P34998).
T1 sequence (P34998 whole entry): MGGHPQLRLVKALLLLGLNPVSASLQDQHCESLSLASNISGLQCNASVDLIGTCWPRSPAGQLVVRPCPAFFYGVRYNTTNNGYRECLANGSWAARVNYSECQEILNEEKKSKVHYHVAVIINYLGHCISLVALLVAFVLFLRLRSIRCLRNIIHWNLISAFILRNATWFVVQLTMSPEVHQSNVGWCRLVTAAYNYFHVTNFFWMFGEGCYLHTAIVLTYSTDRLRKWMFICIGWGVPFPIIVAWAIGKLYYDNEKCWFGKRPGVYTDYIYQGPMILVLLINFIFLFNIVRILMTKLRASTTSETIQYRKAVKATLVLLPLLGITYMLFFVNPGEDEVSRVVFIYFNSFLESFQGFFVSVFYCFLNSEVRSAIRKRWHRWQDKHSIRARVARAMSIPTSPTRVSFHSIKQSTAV
Description: Displacement of [125I]sauvagine from CRF1 receptor expressed in human IMR32 cells. The class given is cell-based, IMR-32.

Series [2] in a line: Solubility at pH 5.4. The class given is physicochemical. As to conditions: buffer.
Series [3] in a line: Oral bioavailability of rat at 20 mg/kg. As to conditions: in vivo. The class given is ADME, organism-based.
Series [4] in a line: Half life in rat liver microsomes. Type of series: ADME, Microsome. For orientation: Microsomes from liver hold many membrane-bound enzymes, among them those of drug oxidation.
For the next series, the system named is Rattus norvegicus. Put plainly: Volume of distribution in po dosed rat. Type of series: ADME, organism-based. As to conditions: in vivo.
A short description of series [5]: Partition coefficient, log P of the compound. Conditions: octanol/water. Type of series: physicochemical.
Series [6] is described as follows: Clearance in po dosed rat. Type of series: ADME, organism-based. Conditions: in vivo.
The nature of series [7]: Tmax in po dosed rat. Type of series: ADME, organism-based. Conditions: in vivo.
A short description of series [8]: Cmax in po dosed rat. Type of series: ADME, organism-based. Also on record: route oral. As to conditions: in vivo.
Series [9] in a line: Half life in po dosed rat. Type of series: ADME, organism-based. Conditions: in vivo.

In brackets after ≈: the same amount, converted by molar mass.

In series [1], `CCCN(CCC)c1c(C)nc(-c2c(C)cc(C)cc2OCCN2CCN(C)CC2)c2ccccc12` yielded a Ki of 524 nM. In series [2], the concentration in solution (solubility) was 135 µg/mL (≈ 276 µM). In [1], `CCCN(CCC)c1c(C)nc(-c2ccc(OC(F)F)cc2OC)c2ccccc12` showed an inhibition constant (Ki) of 17 nM. `CCCN(CCC)c1c(C)nc(-c2c(OC)cc(C(F)(F)F)cc2C(F)(F)F)c2ccccc12` yielded a bioavailability in [3] of 4.8%. Besides, the half-life is 36 min in series [4] and 324 min in series [9]. Further, the affinity in series [1], expressed as Ki, was 8 nM. This molecule had a Vd with Rattus norvegicus of 13 L/kg. This molecule registered a solubility in [2] of less than 0.5 µg/mL. The molecule further showed a logP in series [5] of 5.7. This molecule gave a CL/F in series [6] of 14.5 mL/min/kg. In series [7], the Tmax amounted to 42 min. The same molecule gave a peak concentration (Cmax) in series [8] of 387 ng/mL. In the case of `CCCN(CCC)c1c(C)nc(-c2c(C)cc(C)cc2OCCN2CCC(O)CC2)c2ccccc12`, in series [1], the Ki came out at 41 nM. The concentration in solution in series [2] (solubility) was 125 µg/mL (≈ 255 µM).

As for `CCCN(CCC)c1c(C)nc(-c2ccc(OC)cc2C)c2ccccc12`, affinity in series [1] was put at a Ki of 28 nM. Consider `CCCN(CCC)c1c(C)nc(-c2c(C)cc(C)cc2OCCN2CCCCC2)c2ccccc12`, for which, in series [1], the Ki worked out at 120 nM. This molecule yielded a solubility in series [2] of 27 µg/mL (≈ 57 µM).

Take `CCCN(CCC)c1c(C)nc(-c2c(C)cc(C)cc2OCCN2CCCC2)c2ccccc12`: the affinity in series [1] corresponds to a Ki of 173 nM. Further, the solubility in series [2] was determined as 105 µg/mL (≈ 228 µM). `CCCN(CCC)c1c(C)nc(-c2cccc(Cl)c2)c2ccccc12` gave an inhibition constant Ki in [1] of more than 10000 nM. In the case of `CCCN(CCC)c1c(C)nc(-c2ccccc2Cl)c2ccccc12`, in [1], the Ki is 1680 nM. As to `CCCN(CCC)c1c(CC)nc(-c2c(C)cc(C)cc2OC)c2ccccc12`, the affinity in series [1] corresponds to a Ki of 9 nM. In series [1], `CCCN(CCC)c1cnc(-c2c(C)cc(C)cc2OC)c2ccccc12` showed an inhibitory constant (Ki) of 49 nM. As to `COc1cc(C)cc(C)c1-c1nc(C)c(N(CC2CC2)CC2CC2)c2ccccc12`, in [1], the Ki was found to be 7 nM. The same molecule had a solubility in series [2] of less than 0.5 µg/mL. The molecule `CCCN(CCC)c1c(C)nc(-c2c(C)cc(C)cc2OCCN2CCOCC2)c2ccccc12` yielded a Ki in series [1] of 30 nM. With `CCCN(CCC)c1c(C)nc(-c2ccc(OC)cc2OC)c2ccccc12`, the Ki in series [1] stood at 42 nM. Turning to `CCCN(CCn1ccnc1)c1c(C)nc(-c2c(C)cc(C)cc2OC)c2ccccc12`, the inhibition constant (Ki) in series [1] is 1060 nM. In addition, in series [2], the solubility was 107 µg/mL (≈ 250 µM). `CCCN(CCC)c1c(C)nc(-c2c(C)cc(C)cc2OCCN(C)C)c2ccccc12` showed a Ki in series [1] of 265 nM. The amount in solution in series [2] (solubility) came to 112 µg/mL (≈ 258 µM). `CCCN(CC1CC1)c1c(C)nc(-c2c(C)cc(C)cc2OC)c2ccccc12` came in with an inhibitory constant (Ki) in series [1] of 5 nM. Moreover, the solubility in series [2] was less than 0.5 µg/mL. On to `CCCN(CCC)c1c(C)nc(-c2ccc(Cl)cc2)c2ccccc12`, for which, in series [1], the affinity corresponds to a Ki of 962 nM. Take `CCCN(CCC)c1c(C)nc(-c2c(C)cc(C)cc2OC)c2ccccc12`: the half-life in series [4] was 4 min. For the same molecule, the affinity in series [1], expressed as Ki, was 6 nM. In series [2], this molecule displayed a solubility of less than 0.5 µg/mL. The same molecule returned a logP in series [5] of 4.6. In turn, `CCCN(CCC)c1c(C)nc(-c2ccc(Cl)cc2C)c2ccccc12` came in with an inhibition constant (Ki) in series [1] of 21 nM.

`CCCN(CCN1CCCC1)c1c(C)nc(-c2c(C)cc(C)cc2OC)c2ccccc12` had a Ki in series [1] of 215 nM. The concentration in solution in [2] (solubility) was 120 µg/mL (≈ 278 µM). Molecule `CCCN(CCC)c1c(C)nc(-c2c(C)cc(C)cc2OCCN2CCCC(O)C2)c2ccccc12` (stereo unspecified) returned an inhibition constant Ki in series [1] of 32 nM. In series [2], this molecule registered a solubility of 131 µg/mL (≈ 268 µM). As to `COc1cc(C)cc(C)c1-c1nc(C)c(NCCN2CCCC2)c2ccccc12`, the Ki in series [1] was more than 10000 nM. Also, the solubility in series [2] is 103 µg/mL (≈ 264 µM). Molecule `CCCNc1c(C)nc(-c2c(C)cc(C)cc2OC)c2ccccc12` gave a Ki in series [1] of 165 nM. Take `CCCN(CCC)c1c(C)nc(-c2ccc(Cl)cc2Cl)c2ccccc12`: the inhibition constant (Ki) in [1] is 103 nM.

In series [1], `CCCN(CCC)c1c(C)nc(-c2c(C)cc(OC)cc2C)c2ccccc12` came in with a Ki of 26 nM. The same measure, in the same setting: the figure for `CCCN(CCC)c1c(C)nc(-c2ccccc2)c2ccccc12` is more than 10000 nM. `CCCN(CCC)c1c(C)nc(-c2ccc(OC)cc2CC)c2ccccc12` gave a Ki in [1] of 36 nM.

For orientation: Ki means a dissociation constant, usually derived from enzyme kinetics or from competition with a known ligand. A low value points to tighter binding. The term solubility denotes the dissolved amount per volume that the medium holds. Low values mean little dissolved substance, high ones much dissolved substance. For orientation: bioavailability means the share of a dose that reaches the circulation, judged against a reference dose that is usually intravenous. Higher therefore signals good availability. What is called half-life is how long it takes for the measured level to halve. A lower half-life goes with fast loss. The term logP denotes a log measure of how a compound divides between an organic and an aqueous phase. For orientation: CL/F means the apparent clearance, not corrected for the fraction that reaches the circulation. The Tmax is the time at which the peak concentration occurs. What is called Cmax is the highest concentration seen after dosing.
